In PubChem BioAssay AID463074 (Broad Institute, 2010):
Calls of active or inactive are those of the source.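 How the source made its calls: active means AC50 no more than tenfold above the top dose tested, or full inhibition at every dose with a flat fit (cut at about 19 µM in these data); inconclusive means flat curve fit with inhibition between 30% and 70%, or poor fit; inactive means AC50 more than tenfold above the top dose tested.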

Tested on: HMLE_sh_eGFP viability, CellTiter-Glo luminescence, 72 h
Test: viability loss of HMLE_sh_eGFP cells – cell-based, luminescence, counter-screen for HMLE_sh_ECad selective toxicity project, dose response (AID 463074);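 further: counterscreen control line to flag general toxicity for the HMLE_sh_ECad screen; potency for loss of viability as luminescence drops below DMSO wells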

SMILES	AC50
CCOc1ccccc1CNc1ncnc2ccc(-c3c(C)noc3C)cc12	6.05 µM
Cc1cc(NC(=O)/C=C/c2ccc(Cl)cc2)no1	> 19.5 µM (inactive)
COc1ccc([C@H]2Oc3cc(O)cc(O)c3C(=O)C2[C@@H]2C(=O)c3c(O)cc(O)cc3O[C@@H]2c2ccc(OC)cc2)cc1 (some centres undefined)	10.6 µM
Cc1ccc(C(=O)NC(=C(Cl)Cl)S(=O)(=O)c2ccc(C)cc2)cc1	5.16 µM
Cc1ccc(CSc2nc3sc(C)c(C)c3c(=O)n2Cc2ccco2)cc1	> 19.5 µM (inactive)
Cc1cc(C)c(C(=O)/C=C/c2ccc(C(C)C)cc2)c(=O)[nH]1	10.1 µM
Cc1cccc(NC(=O)c2nc[nH]c2C(=O)N[C@@H](C)c2ccccc2)c1	12 µM
CN1CCN(CCCN2c3ccccc3Sc3ccc(Cl)cc32)CC1	5.25 µM
CN1CCN(S(=O)(=O)c2cccc(C(=O)Nc3cc(C(F)(F)F)ccc3N3CCCCC3)c2)CC1	5.34 µM
CC[C@H](CO)Nc1nc(Nc2cccc(Cl)c2)c2ncn(C(C)C)c2n1	6.74 µM
Cn1c(=O)c(C(=O)NNC(=O)c2ccc(Br)cc2)c(O)c2ccccc21	5.69 µM
O=c1c2c3c(sc2nc(NCCO)n1Cc1ccco1)CCCCC3	2.01 µM
Oc1ccc(-c2cnc(-c3ccc(O)cc3)nc2)cc1	0.304 µM
Cc1ccc(Oc2nc(CN3CCOCC3)nc3sc4c(c23)CCC(C)C4)cc1C (centres undefined)	6.32 µM
FC(F)(F)c1nnc(-c2ccccc2)nc1Sc1ccc(Cl)cc1	6.48 µM
COc1cccc(-c2sc3ccccc3c2-c2ccc(OCCN3CCCCC3)cc2)c1	1.41 µM
CCN(CC)CCCNC(=O)c1cc2c(Cl)nc3ccccc3c2s1	5.16 µM
COc1ccc(C(CCNCc2ccc(OC(C)C)cc2)c2ccccc2OC)cc1 (centres undefined)	4.66 µM
C=CCn1c2ccccc2c(=O)c2cc(C#Cc3cc(OC)cc(OC)c3)ccc21	11.1 µM
O=C(Nc1cccc(-c2csc(Nc3cccc(C(F)(F)F)c3)n2)c1)c1ccccc1	3.42 µM
COc1cc(Nc2ccc(C)cc2)c([N+](=O)[O-])nc1[N+](=O)[O-]	5.74 µM
CCN1CCN(CCCNC(=O)c2ccc3c(c2)NC(=O)/C(=C\c2cccc(C)c2)S3)CC1	3.62 µM
O=C(CSc1nc2nc(-c3cccs3)cc(C(F)(F)F)c2c(=O)[nH]1)Nc1ccc(F)c(F)c1	2.56 µM
Fc1ccc2[nH]c3c(N4CCc5ccccc5C4)ncnc3c2c1	7.36 µM
O=C(Cn1ncc(Cl)c(Cl)c1=O)NC(=O)NC1CCCCC1	2.23 µM
O=C1NC(=O)N(CCc2ccc(F)cc2)C(=O)/C1=C/C=C/c1ccccc1	3.91 µM

SMILES	AC50
Cc1nnc(-c2ccc(Oc3ccc(Cl)cc3)c([N+](=O)[O-])c2)o1	0.33 µM
O=C(/C=C/c1ccc(F)cc1)c1cc(Br)ccc1O	14.1 µM
Cc1ccccc1CNc1ccc(C(CC(N)=O)NC(=O)c2ccccc2)cc1[N+](=O)[O-] (centres undefined)	6.24 µM
CCOC(=O)CS(=O)(=O)c1nc(-c2ccccc2)cc(C(F)(F)F)n1	3.25 µM
Cc1nn(Cc2ccc(C(=O)Nc3nccs3)cc2)c(C)c1Cl	0.661 µM
O=C(Cc1ccc(F)cc1)Nc1nnc(SCC(=O)N2CCCCC2)s1	> 19.5 µM (inactive)
C[C@H](CO)N1C[C@H](C)[C@@H](CN(C)S(=O)(=O)c2ccccc2)Oc2ccc(NC(=O)Nc3ccc(C(F)(F)F)cc3)cc2C1=O	12.9 µM
CC(C)N(C(=O)CSc1nc2ccccc2n1-c1ccccc1)C(C)C	7.62 µM
O=C(Nc1cccc(Cl)c1)Nc1cc(S(=O)(=O)N2CCCCC2)ccc1Cl	2.82 µM
O=C(COC(=O)/C=C/C(=O)OCC(=O)Nc1ccccc1F)Nc1ccccc1F	9.61 µM
O=C(Nc1cc(N2CCOCC2)ncn1)NC1(C(F)(F)F)Oc2ccc(Cl)cc2O1 (centres undefined)	14.7 µM
Cn1nc([N+](=O)[O-])c(C(C#N)c2ccccn2)c(Cl)c1=O (centres undefined)	15.3 µM
CCCCNc1c(-c2ccc(SC3CCCCC3)c(OC)c2)nc2ccc(C)cn12	3.49 µM
O=C(/C=C/c1ccccc1)NC(NC(=S)Nc1cc(Cl)ccc1Cl)C(Cl)(Cl)Cl (centres undefined)	6.28 µM
CNC(=O)NC(=O)C(C)OC(=O)c1oc2ccccc2c1CSc1ccc(Cl)cc1 (centres undefined)	19.3 µM
O=[N+]([O-])c1ccc(-c2nc(Nc3cccc(O)c3)c3ccccc3n2)cc1	3.89 µM
NC(=O)CC(NC(=O)Cc1ccc(Br)cc1)c1ccc(NC2CCCCCC2)c([N+](=O)[O-])c1 (centres undefined)	4.88 µM
CN(C)C(CNS(=O)(=O)c1ccc2ccccc2c1)c1ccccc1 (centres undefined)	> 19.5 µM (inactive)
CC(=O)n1c2c(c3ccccc31)OC(N)=C(C#N)C2c1cccc(Cl)c1Cl (centres undefined)	4.88 µM
COc1cc(OC)cc(C(=O)Nc2ccc(Nc3ccccc3)cc2)c1	7.41 µM
Cc1cc(C)nc(SCc2ccc(C(=O)NNC(=O)Nc3cccc(Cl)c3)cc2)n1	3.92 µM
CC1(C)C=Cc2c(ccc3c2OC[C@@H](c2ccc(O)cc2O)C3)O1	7.27 µM
COc1cccc(-c2sc3ccccc3c2-c2ccc(OCCN(C)C)cc2)c1	3.34 µM
Oc1ccc(N=Nc2ccc(Br)cc2)c(O)c1	17.3 µM
Nc1ccccc1N=Cc1ccc(-c2cccc(Cl)c2)o1	4.22 µM
COc1cc(Nc2nc(-c3ccccc3)c3cc(C)ccc3n2)cc(OC)c1OC	5.17 µM

SMILES	AC50
C/C(=N\NC(=S)NC(C)C)c1ccc(C(C)(C)C)cc1	10 µM
O=C(CSCc1cccc(Cl)c1)Nc1ccccc1-c1ccccc1	> 19.5 µM (inactive)
Cc1cc(-c2csc3nc[nH]c(=S)c23)cc(C)c1C	18.8 µM
O=C(NC(=S)Nc1ccccc1N1CCCCC1)c1ccc(F)cc1Cl	2.84 µM
C[C@@H](CSc1ccc(Br)cc1)CN1CC[C@H](C(C)(C)C)CCC1=O	3.35 µM
CC1(NC(=O)CC(c2ccccc2)(c2ccccc2)c2ccccc2)CCN(CCCc2ccccc2)C1=O (centres undefined)	6.85 µM
CC1CCC2C(=O)N(c3ccc(NC4CCCCC4)c([N+](=O)[O-])c3)C(=O)C2C1 (centres undefined)	4.01 µM
COc1cccc(/C=C/C(=C2/C(=O)N(c3ccccc3)N=C2C)c2ccc(Br)cc2)c1OC	> 19.5 µM (inactive)
Clc1ccc(C(c2ccccc2Cl)C(Cl)Cl)cc1 (centres undefined)	6.32 µM
O=C(Nc1cccc(Cl)c1)c1nc[nH]c1C(=O)NCCCNC(=O)c1[nH]cnc1C(=O)Nc1cccc(Cl)c1	5.33 µM
Cc1ccc(Cl)cc1NC(=O)c1ccccc1OCC(=O)Nc1ccc(Cl)cc1	11.5 µM
Cn1ncc2c(Nc3cccc(Cl)c3)nc(Nc3cccc(Cl)c3)nc21	3.71 µM
O=C1c2ccccc2NC(c2ccc(-c3ccc(Br)cc3)o2)N1O (centres undefined)	5.06 µM
O=C(NC(=S)NCCc1ccccc1)C1CCCCC1	18.4 µM
CCOC(=O)N1CCN(S(=O)(=O)c2ccc(C(=O)NNc3nc4cc(C)cc(C)c4s3)cc2)CC1	3.7 µM
Cc1cccc(CN2C(=O)/C(=C\c3ccc(C(=O)NCCCN4CCN(C)CC4)cc3)Oc3ccccc32)c1	3.62 µM
Cc1c(CCOC(=O)C2C3CC4CC(C3)CC2C4)sc[n+]1CC(=O)c1ccc(Br)cc1 (centres undefined)	2.44 µM
C/C(=C\c1ccc(C(=O)O)cc1)c1ccc2c(c1)C(C)(C)CCC2(C)C	3.7 µM
CC1(C)CN(c2ccccc2)N(C(=O)c2ccc(F)cc2)C1=O	5.6 µM
Cc1ccc(C(=O)N/C(=C\c2ccc(-c3ccc(Br)cc3)o2)C(=O)NCCCN(C)C)cc1	4.38 µM
c1ccc(-c2nnc3sc(CN4CCc5ccccc54)cn23)cc1	3.51 µM
Cc1ccccc1NCc1ccc([N+](=O)[O-])s1	10.6 µM
CCSc1ncc(/C=N/Nc2ccc(Cl)cc2)n1C	6.75 µM
CCOC(=O)N1CCN(CCC(=O)c2ccc(Cl)cc2)CC1	14 µM
CC1=CC(C)[C@H](/C=N/n2c(=O)[nH]c3c([nH]c4ccc(Br)cc43)c2=O)C(C)C1 (some centres undefined)	1.46 µM
Cc1cc(C)cc(-n2c(C)cc(/C=C3\C(=N)N4N=C(CC(C)C)SC4=NC3=O)c2C)c1	4.82 µM

SMILES	AC50
CCc1ccc(-c2cc(C(=O)N/N=C/c3c[nH]c4ccccc34)[nH]n2)cc1	12.6 µM
O=C1/C(=C/c2ccncc2)Oc2cc(OS(=O)(=O)c3ccccc3)ccc21	4.81 µM
C[C@@H](CSc1ccc(Br)cc1)CN1CC[C@H](NC(=O)OCc2ccccc2)CCC1=O	5.5 µM
Cc1ccccc1-c1cc(C(=O)Nc2sc(C(=O)OC(C)C)c(C)c2C#N)c2ccccc2n1	2.66 µM
FC(F)Oc1ccc(-c2csc(NNC3=NCCCCC3)n2)cc1	3.28 µM
Cc1nc(Nc2nc(CSc3nc4ccccc4[nH]3)cc(=O)[nH]2)nc2ccccc12	2.69 µM
C/C(=N\NC(=O)c1nnn(-c2nonc2N)c1CN1CCCCC1)c1ccccc1O	4.26 µM
Cc1cccc2sc(NC(=O)C3c4ccccc4Oc4ccccc43)nc12	5.71 µM
CCCCCc1cc(=O)oc2c(C(CCN3CCCCC3)c3ccc4c(c3)OCO4)c(OC)cc(OC)c12 (centres undefined)	6.89 µM
Oc1ccc(Nc2nc(-c3ccc4ccccc4c3)cs2)cc1	7.1 µM
CC(C)N1C(=O)/C(=C\c2nc3ccccc3c(=O)n2-c2ccccc2)c2ccccc21	9.85 µM
O=C(/C=C/c1ccncc1)c1ccc(NC(=O)c2ccccc2F)cc1	4.38 µM
Cc1ccc(OCCCCN(C)Cc2ccccc2)c(Br)c1	12.5 µM
CCOC(=O)c1ccc(NC(=O)c2nc[nH]c2C(=O)NCCNC(=O)c2[nH]cnc2C(=O)Nc2ccc(C(=O)OCC)cc2)cc1	0.624 µM
CSc1nc2sc3c(c2c(=O)n1CC(C)C)CC(C)(C)OC3	< 0.16 µM
COc1ccc(C(=O)Nc2cccc(/C=C/c3nc4ccccc4c(=O)[nH]3)c2)cc1	3.58 µM
COc1cc2nc(CN3CC=C(c4ccccc4)CC3)[nH]c(=O)c2cc1OC	3.39 µM
COc1cc(NC(=O)c2csc(N)n2)cc(C(=O)Nc2cccc(C(F)(F)F)c2)c1	5.65 µM
O=C1C=CC(=O)N1c1ccc(OC(F)F)cc1	11.9 µM
COc1cccc2sc3cc(C#CC4(O)CCCCC4)ccc3c(=O)c12	3.1 µM
CCOc1ccc(/C=C/C(O)=C2/C(=O)N(C)C3(C)CC2c2ccccc2O3)cc1OC (centres undefined)	5.95 µM
N#Cc1c(NC(=O)Cn2c(=O)oc3ccccc32)oc(-c2ccccc2)c1-c1ccccc1	4.24 µM
Cn1c(N)c(C(=O)COC(=O)c2ccccc2C(=O)c2ccc(Cl)c([N+](=O)[O-])c2)c(=O)n(C)c1=O	3.61 µM
CCN1CCN(C(=S)Nc2sc(C)c(-c3ccccc3)c2C(=O)OC)CC1	4.72 µM
CCc1ccc(NC(=O)c2cc3c(C)nc4ccccc4c3o2)cc1	11.9 µM
CCOC(=O)c1c(C)sc2c1N(C(=O)CCl)c1cc(Cl)ccc1S2	3.66 µM
